Assay results taken from patent US20240148671A1, “METHODS FOR IMPROVING POULTRY HEALTH” (CORNELL UNIVERSITY, priority 2021, published 2024).
Marks after values point to notes of the source that are not given here.

Columns and labels:
Type in all cases: in vivo, Gallus gallus
[1] = Fe and Zn content in the serum and liver samples
Description: (§1) The pure resveratrol and pterostilbene were individually diluted in 18 MΩ H2O. The intra-amniotic administration followed the methodology previously described. On the 17th day of embryonic development, the eggs with viable embryos (n=60) were randomly allocated into 6 groups (n=10) with a similar weight frequency distribution. For the intra-amniotic treatment, 1 mL of solution per egg was injected into the amniotic fluid (via candling) with the aid of a 21-gauge needle. After the procedure, the injection sites were sealed with cellophane tape, and the eggs were distributed into six groups: (1) no injection; (2) 18 MΩ H2O; (3) 5% inulin; (4) 5% resveratrol; (5) 5% pterostilbene; and (6) synergistic: 4.75% resveratrol and 0.25% pterostilbene. […] The eggs were equally distributed in each incubator location to reduce possible allocation bias. Upon hatching (21 days), the hatchlings were euthanized by CO2 exposure, and the blood, liver, heart, pectoral muscle, small intestine and cecum were obtained.
The serum (50 μL) and liver (0.5 g) samples were mixed with 3.0 mL of a 60:40 (v/v) solution of nitric acid (HNO3) and perchloric acid (HClO4) and incubated overnight. After this, the samples were heated for 2 hours at 120° C. and added to 0.25 mL of 40 μg/g yttrium (internal standard), and the block temperature was increased to 145° C. for 2 h and then 190° C. for 10 min. At the end of these procedures, the samples were cooled, diluted to a total volume of 20 mL, mixed and transferred into autosampler tubes for analysis (inductively coupled plasma atomic emission spectrometer) (Thermo, Franklin, MA, USA).

[2] = Glycogen in pectoral muscle; details: intra-amniotic 1 mL/egg on day 17, at hatch, mean ± SEM, n=8
Description: as §1

Liver Ferritin = assay: Liver ferritin; details: intra-amniotic 1 mL/egg on day 17, at hatch, mean ± SEM, n=5
Description: as §1

[3] = system: duodenal tissue (villi, crypts, goblet cells); assay: Morphometric examination of duodenal tissue
Description: as §1
Villus epithelium analysis was conducted as previously published. The duodenal samples were soaked in buffered formaldehyde (4% (v/v)), dehydrated, cleared and embedded in paraffin. Numerous sections were cut with a thickness of 5 μm and put on slides. The sections were deparaffinized in xylene, after which they were rehydrated in a series of graded alcohol. Finally, the slides were stained with Alcian Blue-periodic acid-Schiff and investigated under a light microscopy. The variables were assessed (light microscope, EPIX XCAP software, standard version, Olympus, Waltham, MA, USA) for the following: villus length, villus diameter, depth of crypts, goblet cell diameter, crypt goblet cell number and villus goblet cells type number (acidic, neutral or mixed). Four segments for each biological sample and five biological samples per treatment group were examined. The goblet cells were enumerated at 10 villi/sample, and the means were calculated for statistical analysis.

[4] = system: DMT1 (Divalent metal transporter 1); assay: Gene expression (RT-PCR), DMT1; details: at hatch, b173: compared with the other treatments and the controls, b190: comparator not stated, p<0.05
Description: (§2) The pure resveratrol and pterostilbene were individually diluted in 18 MΩ H2O. The intra-amniotic administration followed the methodology previously described. On the 17th day of embryonic development, the eggs with viable embryos (n=60) were randomly allocated into 6 groups (n=10) with a similar weight frequency distribution. For the intra-amniotic treatment, 1 mL of solution per egg was injected into the amniotic fluid (via candling) with the aid of a 21-gauge needle. […]
(§3) The RNA was isolated as described previously (RNeasy Mini Kit, Qiagen Inc., Valencia, CA, USA), and 30 mg of the duodenal tissue or liver tissue (n =8) was used to extract the total RNA. […] Finally, the RNA was eluted in 50 μL of RNase-free water and quantified by absorbance at 260 and 280 nm.
(§4) RT-PCR was conducted as described. […] The cDNA content was assessed by absorbance at 260 and 280 nm, with an extinction coefficient of 33 (single-stranded DNA). Genomic DNA contamination was evaluated via a real-time RT-PCR assay for the reference gene samples [17,18,30]. […]
(§5) The procedures were performed as previously published. […] The optimal MgCl2 concentration achieved, for each reaction, an amplification plot (lowest cycle product, Cp), the uppermost fluorescence intensity and the steepest amplification slope. […]

TNF-α = assay: Gene expression (RT-PCR), TNF-α; details: at hatch; b175, b210: compared with the 5% inulin control group; b192: comparator not stated; p<0.05
Description: as §2, §3, §4, §5

SI (Sucrose isomaltase) = assay: Gene expression (RT-PCR), SI; details: at hatch; b175: compared with the no injection and 5% inulin control groups; b192: comparator not stated; p<0.05
Description: as §2, §3, §4, §5

[5] = liver, intra-amniotic 1 mL/egg on day 17, at hatch, mean ± SEM, n=8
[6] = serum, intra-amniotic 1 mL/egg on day 17, at hatch, mean ± SEM, n=8
[7] = duodenum, intra-amniotic 1 mL/egg on day 17, at hatch, mean ± SEM, n=5
[8] = small intestine, intra-amniotic 1 mL/egg on day 17, at hatch, mean ± SEM, n=5

Oc1ccc(C=Cc2cc(O)cc(O)c2)cc1 [5% Resveratrol, Resveratrol]
Liver iron concentration vs inulin positive control ([1]; compared with the inulin positive control): similar | Liver Iron (μg/g) [1, 5]: 46.45 ± 4.71 ^a μg/g | Liver Zinc (μg/g) [1, 5]: 16.72 ± 1.58 ^b μg/g | Serum Iron (μg/g) [1, 6]: 2.42 ± 0.23 ^b μg/g | Serum Zinc (μg/g) [1, 6]: 0.97 ± 0.12 ^bc μg/g | Glycogen (mg/g) [2]: 0.019 ± 0.004^a mg/g | Liver Ferritin (A.U.) (Liver Ferritin): 0.839 ± 0.393^bc A.U. | Depth of Crypts (μm) [3, 7]: 63.73 ± 1.20^a μm | Mucus Layer Width (μm) [3, 7]: 4.80 ± 0.13^d μm | Villus Diameter (μm) [3, 7]: 54.47 ± 0.70^b μm | Villus Length (μm) [3, 7]: 294.92 ± 3.48^c μm | Crypt Goblet Cell Number [3, 8]: 10.91 ± 0.21 ^b | Goblet Cell Diameter (μM) [3, 8]: 7.94 ± 0.06 ^b μM | Villus Goblet Cell Type Number, Acidic [3, 8]: 10.97 ± 0.23 ^a | Villus Goblet Cell Type Number, Mixed [3, 8]: 0.17 ± 0.03 ^c | Villus Goblet Cell Type Number, Neutral [3, 8]: 0.00 ± 0.00 ^b | Duodenal villus diameter, comparison with controls ([3]; versus the controls, p<0.05): significant increase | Duodenal villus length, comparison with controls ([3]; versus the controls, p<0.05): significant increase | DMT1 relative gene expression ([4]; listed as 5% resveratrol): lowest | DMT1 relative gene expression ([4]; listed as resveratrol): downregulated significantly | TNF-α gene expression (TNF-α): downregulated | SI relative expression (SI (Sucrose isomaltase)): down regulated
